Results: publication PMC9284540 (Journal of Molecular Biology, 2022)

Tests used:
[1] = biological target: T1, SARS-CoV-2^A358V/F360N MD (Severe acute respiratory syndrome coronavirus 2, UniProt P0DTD1, A1176V/F1178N); type: biochemical
[2] = biological target: T2, SARS-CoV-2^F360N/D361S MD (Severe acute respiratory syndrome coronavirus 2, UniProt P0DTD1, D1179S/F1178N); type: biochemical
[3] = biological target: T2, SARS-CoV-2^F360N/D361S MD; type: binding
[4] = biological target: T1, SARS-CoV-2^A358V/F360N MD; type: binding

SMILES: N#C[C@@]1(c2ccc3c(N)ncnn23)O[C@H](CO)[C@@H](O)[C@H]1O [GS-441524]
- Initial substrate decay rate k [1]: 0.127 ± 0.01 µM/min
- decrease of the k value vs free form [1]: 33.2%
- Initial substrate decay rate k [2]: 0.160 ± 0.007 µM/min
- decrease of the k value vs free form [2]: 24.9%
- exchange regime on NMR time scale [3]: fast exchange regime
- exchange regime on NMR time scale [4]: fast exchange regime
